Source: PubChem BioAssay AID330 (DTP/NCI, 2004)
Values joined by “and” are separate entries in the source; they are usually repeats but may differ in a detail not shown here. Equal entries are not always repeated. Inconclusive results and toxic doses are left out. Rule for the calls: active = survival T/C of 150% or more; inactive = T/C below 125% in these data.

Test system: P388 leukemia ip, CD2F1 mice, survival T/C
Assay: NCI In Vivo Anticancer Drug Screen. Data for tumor model P388 Leukemia (intraperitoneal) in CD2F1 (CDF1) mice
Settings: endpoint: median survival time, higher = longer survival
Summary of the method: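 Mice carrying the transplanted tumor received test compound or vehicle. Survival was recorded in each group, and the value is the treated-group measurement divided by that of the vehicle-treated control group.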

[1] = dose: 50.0 mg/kg/injection, schedule: Q01DX005 (ip), vehicle: saline
[2] = dose: 100.0 mg/kg/injection, schedule: Q01DX005 (ip), vehicle: saline
[3] = dose: 200.0 mg/kg/injection, schedule: Q01DX005 (ip), vehicle: saline
[4] = dose: 50.0 mg/kg/injection, schedule: Q01DX001 (ip), vehicle: Klucel (hydroxypropylcellulose) (HPC)
[5] = dose: 100.0 mg/kg/injection, schedule: Q01DX001 (ip), vehicle: Klucel (hydroxypropylcellulose) (HPC)
[6] = dose: 60.0 mg/kg/injection, schedule: Q01DX005 (ip), vehicle: saline with Tween-80
[7] = dose: 240.0 mg/kg/injection, schedule: Q01DX005 (ip), vehicle: saline with Tween-80

Measured: T/C

CCN1CC2C3CCC(C)(O3)C2C1 (stereo unspecified)
inactive: [1] 99 % of control | [2] 98 % of control | [3] 101 % of control

CC1(C)CC(=O)C(CSc2ccccc2)C(=O)C1
inactive: dose: 12.5 mg/kg/injection, schedule: Q01DX001 (ip), vehicle: saline 108 % of control | dose: 25.0 mg/kg/injection, schedule: Q01DX001 (ip), vehicle: Klucel (hydroxypropylcellulose) (HPC) 100 % of control | dose: 25.0 mg/kg/injection, schedule: Q01DX001 (ip), vehicle: saline 111 % of control | [4] 100 % of control and 105 % of control | dose: 50.0 mg/kg/injection, schedule: Q01DX001 (ip), vehicle: saline 112 % of control | [5] 100 % of control

NC(=Nc1ccccc1)c1ccccn1
inactive: dose: 50.0 mg/kg/injection, schedule: Q01DX009 (ip), vehicle: saline 95 % of control | dose: 100.0 mg/kg/injection, schedule: Q01DX009 (ip), vehicle: saline 94 % of control | dose: 200.0 mg/kg/injection, schedule: Q01DX009 (ip), vehicle: saline 95 % of control

Oc1ccc(Nc2c3ccccc3nc3c2ccc2ccccc23)cc1CN(CCCl)CCCl
active: dose: 7.2 mg/kg/injection, schedule: Q04DX003 (ip), vehicle: saline 194 % of control | dose: 11.0 mg/kg/injection, schedule: Q04DX003 (ip), vehicle: saline 205 % of control | dose: 16.0 mg/kg/injection, schedule: Q04DX003 (ip), vehicle: saline 161 % of control

CC(C)C1OC2(CCCC2)OCC1(C)C (stereo unspecified)
inactive: dose: 100.0 mg/kg/injection, schedule: Q04DX003 (ip), vehicle: Klucel (hydroxypropylcellulose) (HPC) 103 % of control | dose: 200.0 mg/kg/injection, schedule: Q04DX003 (ip), vehicle: Klucel (hydroxypropylcellulose) (HPC) 103 % of control | dose: 400.0 mg/kg/injection, schedule: Q04DX003 (ip), vehicle: Klucel (hydroxypropylcellulose) (HPC) 100 % of control

Cc1ncc(C(O)c2ccc(N(C)C)cc2)n1Cc1ccccc1 (stereo unspecified)
inactive: [6] 98 % of control | dose: 120.0 mg/kg/injection, schedule: Q01DX005 (ip), vehicle: saline with Tween-80 95 % of control | [7] 95 % of control

NC(CSC1(c2cccc3ccccc23)c2ccccc2-c2ccccc21)C(=O)O (stereo unspecified)
inactive: dose: 60.0 mg/kg/injection, schedule: Q01DX005 (ip), vehicle: Klucel (hydroxypropylcellulose) (HPC) 93 % of control | dose: 120.0 mg/kg/injection, schedule: Q01DX005 (ip), vehicle: Klucel (hydroxypropylcellulose) (HPC) 90 % of control | dose: 240.0 mg/kg/injection, schedule: Q01DX005 (ip), vehicle: Klucel (hydroxypropylcellulose) (HPC) 88 % of control

CCCCCCCC(Nc1nncs1)Nc1nncs1
inactive: dose: 15.0 mg/kg/injection, schedule: Q01DX005 (ip), vehicle: saline with Tween-80 101 % of control | dose: 30.0 mg/kg/injection, schedule: Q01DX005 (ip), vehicle: saline with Tween-80 92 % of control | [6] 87 % of control and 90 % of control | [7] 91 % of control

O=C(NC(C(=O)O)c1ccc(CCl)cc1)c1ccccc1 (stereo unspecified)
inactive: dose: 50.0 mg/kg/injection, schedule: Q01DX005 (ip), vehicle: saline with Tween-80 107 % of control | dose: 100.0 mg/kg/injection, schedule: Q01DX005 (ip), vehicle: saline with Tween-80 105 % of control

O=c1[nH]c(=O)n(C2OC(CO)C(O)C2O)cc1N1CCOCC1 (stereo unspecified)
inactive: [1] 100 % of control | [2] 100 % of control | [3] 98 % of control

CC(COS(C)(=O)=O)OS(C)(=O)=O (stereo unspecified)
inactive: [4] 98 % of control | [5] 93 % of control | dose: 200.0 mg/kg/injection, schedule: Q01DX001 (ip), vehicle: Klucel (hydroxypropylcellulose) (HPC) 101 % of control

O=Cc1ccc2occc2c1O
inactive: dose: 3.75 mg/kg/injection, schedule: Q01DX009 (ip), vehicle: saline with Tween-80 95 % of control | dose: 7.5 mg/kg/injection, schedule: Q01DX009 (ip), vehicle: saline with Tween-80 94 % of control | dose: 15.0 mg/kg/injection, schedule: Q01DX009 (ip), vehicle: saline with Tween-80 92 % of control

COC1/C=C/OC2(C)Oc3c(C)c(O)c4c(c3C2=O)C(N)=C(Nc2ccccc2)C(=NC(=O)C(C)=CC=CC(C)C(O)C(C)C(O)C(C)C(OC(C)=O)C1C)C4=O (stereo unspecified)
inactive: dose: 25.0 mg/kg/injection, schedule: Q01DX009 (ip), vehicle: Klucel (hydroxypropylcellulose) (HPC) 97 % of control | dose: 50.0 mg/kg/injection, schedule: Q01DX009 (ip), vehicle: Klucel (hydroxypropylcellulose) (HPC) 94 % of control | dose: 100.0 mg/kg/injection, schedule: Q01DX009 (ip), vehicle: Klucel (hydroxypropylcellulose) (HPC) 98 % of control | dose: 200.0 mg/kg/injection, schedule: Q01DX009 (ip), vehicle: Klucel (hydroxypropylcellulose) (HPC) 86 % of control

C[C@H]1CCC2=C(C1)NC(N)=NC2(C)C
inactive: dose: 12.5 mg/kg/injection, schedule: Q04DX002 (ip), vehicle: saline with Tween-80 93 % of control | dose: 25.0 mg/kg/injection, schedule: Q04DX002 (ip), vehicle: saline with Tween-80 93 % of control | dose: 50.0 mg/kg/injection, schedule: Q04DX002 (ip), vehicle: saline with Tween-80 98 % of control
